Experimental data as given in article PMC7291522 (Thrombosis Journal, 2020).

Key:
[1] = system: healthy elderly Japanese male subjects; conditions: in vivo
From the text: (§2) This study was a randomized, open-label, parallel-group, repeated-dose study conducted at a single center.
(§3) We measured BT by the Ivy method [12] using a needle type of BD Microtainer Contact-Activated Lancet device (Becton, Dickinson and Company, USA). The incision was made in the lateral aspect of the forearm by puncturing at one arbitrary site with the device. After the incision, we blotted the blood every 30 s with filter paper until the bleeding reached hemostasis and recorded the time from the puncture to the end of bleeding. When the time to hemostasis exceeded 10 min, it was recorded as such, ending the observation. […] Baseline BT was measured on the day of admission at approximately the same time of day as the BT evaluations on Day 3 and Day 8, 3 hours after the administration of study drug(s).
(§4) For the primary endpoint analysis, a logarithmically converted value of BT for each sample was the dependent variable in a linear mixed model with fixed and random effects.

blood coagulation = test: Activated partial thromboplastin time (aPTT), HemosIL SynthASil reagent; type: in vivo, human; conditions: 30 mg edoxaban, Day 3
Protocol: (§1) Blood was collected in a vacuum blood collection tube containing 3.2% sodium citrate, and the schedule for the blood sample collection is shown in Table 1. Blood coagulation marker PT was measured by PT reagent Thrombocheck-PT in system CS-200i (Sysmex Corporation, Japan); aPTT by aPTT reagent HemosIL SynthASil in system ACL TOP Base (IL, Japan; Instrumentation Laboratory, USA) and F1 + 2 by ELISA Enzygnost F1 + 2 monoclonal reagent in system Behring ELISA Processor III and DiaSorin (BIT Analytical Instruments GmbH, Germany). These assays were carried out at LSI Medience Corporation (Tokyo, Japan). We measured PRU with VerifyNow system (Instrumentation Laboratory, Bedford, MA, USA) at Sumida Hospital.

platelet aggregation = test: P2Y12 reaction units (PRU), VerifyNow system; type: in vivo, human; conditions: 30 mg edoxaban alone, Day 3
Protocol: as §1

[2] = Plasma edoxaban pharmacokinetics (LC-MS/MS, noncompartmental analysis); conditions: 30 mg edoxaban alone, Day 3; for AUC / Cmax / Tmax: male, human, in vivo, 30 mg; for AUC: AUCtau,ss of edoxaban; for Cmax: Cmax,ss of edoxaban; for Tmax: tmax,ss of edoxaban
Protocol: Plasma samples were obtained by centrifugation, and the samples were immediately frozen at − 20 °C or lower.
Summary statistics were calculated for baseline and postdose values for the primary endpoint of BT and secondary endpoints of PD indices (PT, aPTT, F1 + 2, PRU) for each target population. […] 8.1 based on Model 1200 (Extravascular). AUCtau,ss was calculated by the linear-Log trapezoidal method.
For the secondary endpoints analysis, we used the logarithmically converted PK parameters (Cmax,ss, AUCtau,ss, tmax,ss) as dependent variables in a linear mixed model with fixed and variable effects.

[3] = system: healthy elderly Japanese male subjects; test: Bleeding time (BT) by the Ivy method; conditions: 30 mg edoxaban once daily for 3 days, Day 3, 3 h after administration
From the text: as §2, §3, §4

[4] = system: healthy elderly Japanese male subjects; test: Safety: adverse events in the clinical pharmacology study; conditions: 30 mg edoxaban alone, 24 participants

CC(=O)Oc1cc2c(s1)CCN(C(C(=O)C1CC1)c1ccccc1F)C2 (stereo not drawn) [prasugrel]
Dose dependence of the effect of prasugrel on BT [1]: dose-dependent

CN1CCc2nc(C(=O)N[C@@H]3C[C@@H](C(=O)N(C)C)CC[C@@H]3NC(=O)C(=O)Nc3ccc(Cl)cn3)sc2C1 [Edoxaban, edoxaban]
aPTT, mean (blood coagulation; Group 1, baseline 31.9): 38.0 s | aPTT, mean (blood coagulation; Group 2, baseline 34.2): 39.9 s | Effect on PRU (platelet aggregation): essentially had no effect | tmax,ss of edoxaban, Mean (SD) ([2]; Group 2, n = 12): 1.0 (0.84) h | AUC ([2]; Mean (SD), Group 1, n = 12): 1060 ng·h/mL | AUC ([2]; Mean (SD), Group 2, n = 12): 1070 ng·h/mL | AUC ([2]; Median (IQR), Group 1, n = 12): 1020 ng·h/mL | AUC ([2]; Median (IQR), Group 2, n = 12): 992 ng·h/mL | Cmax ([2]; Mean (SD), Group 1, n = 12): 216 ng/mL | Cmax ([2]; Mean (SD), Group 2, n = 12): 191 ng/mL | Cmax ([2]; Median (IQR), Group 1, n = 12): 200 ng/mL | Cmax ([2]; Median (IQR), Group 2, n = 12): 170 ng/mL | Tmax ([2]; Mean (SD), Group 1, n = 12): 72 min | Tmax ([2]; Median (IQR), Group 1, n = 12): 45 min | Tmax ([2]; Median (IQR), Group 2, n = 12): 30 min | Bleeding time, Mean (SD) ([3]; Group 1, n = 12): 3.5 (0.6) min | Bleeding time, Median (IQR) ([3]; Group 1, n = 12): 3.5 (3.0–4.0) min | Bleeding time, Mean (SD) ([3]; Group 2, n = 12): 4.7 (1.6) min | Bleeding time, Median (IQR) ([3]; Group 2, n = 12): 4.5 (3.3–6.0) min | Positive results in the fecal occult blood test (number) [4]: four
